{"source": "patent US20220288028A1", "about": "“A THERAPEUTIC APPROACH FOR TREATING NON-INFECTIOUS OCULAR IMMUNOINFLAMMATORY DISORDERS” (The Schepens Eye Research Institute, Inc., priority 2019, published 2022)", "key": {"CD4^+CD25^+Foxp3^+ Tregs": {"tested_on": "CD4^+CD25^+Foxp3^+ Tregs", "assay": "Tregs co-cultured with SP with or without Spantide I: phenotype, cytokines, suppression of effector T cell proliferation", "type": "cell-based, C57BL/6 mice", "experimental": "CD4^+CD25^+Foxp3^+ Tregs were isolated from draining lymph nodes (DLN) of naïve female C57BL/6 mice.\nIsolated Tregs were co-cultured with SP (1 μM) with or without Spantide I (10 μM) for 48 hours. Phenotype of Tregs was evaluated by flow cytometry, and the capacity of Tregs to suppress effector T cell proliferation was investigated."}, "Foxp3^+CD4^+ Tregs": {"tested_on": "Foxp3^+CD4^+ Tregs", "assay": "Isolated Tregs co-cultured with SP, with or without NK1R antagonist (recovered Tregs)", "type": "cell-based, mice", "conditions": "SP at 0.1, 1, and 10 nM in vitro; tested 0.01-10 nM", "experimental": "FIGS. 3A and 3B show the results of the in vitro effect of SP on Treg cells. The normal functional Foxp3^+CD4^+ Tregs were isolated from naive mice and co-cultured with different doses of SP, e.g., at 0.01, 0.1, 1, and 10 nM in vitro. […] On the contrary, addition of the NK1R antagonist prevented the loss of Tregs (FIG. 3B)."}, "[1]": {"tested_on": "bone marrow-derived dendritic cells (BMDCs)", "assay": "BMDC maturation (MHC II expression) in the presence of SP, flow cytometry", "type": "cell-based, C57BL/6 mice", "conditions": "SP 25, 50 and 100 μg/mL for 18 hours; p=0.03 and p=0.02 for 50 and 100 μg/mL vs. vehicle", "experimental": "Generation of Bone Marrow-Derived Dendritic Cells (BMDCs): Long bones (femur and tibia) were harvested from C57BL/6 mice and cell suspension was prepared. Cells were incubated with Red blood cell (RBC) lysis buffer (Sigma-Aldrich, St. Louis, Mo.) at 37° C. for 10 minutes. […]\nSingle Cell Suspension Preparation and Flow Cytometry: Submandibular and cervical draining lymph nodes (DLNs) were harvested and single cell suspensions were prepared. […] Stained cells were examined using an LSRII Flow Cytometer (BD Biosciences, Franklin Lakes, N.J., USA), and data were analyzed using commercial Summit software (Summit v4.3; Dako Colorado, Inc., Fort Collins, Colo.).\nMature APCs play a key role in the activation of THh17 cells and the autoimmune response in DED (Barabino S. et al. Prog Retin Eye Res 2012, 31:271-85; Stevenson W, Chauhan S K, Dana R: Dry eye disease: an immune-mediated ocular surface disorder. Arch Ophthalmol 2012, 130:90-100; Hamrah P, et al. Invest Ophthalmol Vis Sci 2003, 44:581-9). Given that increased SP levels in response to desiccating stress was observed, the effect of SP on maturation of APCs was next evaluated. […]"}, "[2]": {"tested_on": "corneal epithelial wound healing", "conditions": "topical application, diabetic mice; cited from earlier work"}}, "note": "Where no end group is shown, it is not given here.", "data": [{"substance": "SP: substance P, an 11-amino acid neuropeptide, endogenous ligand of NK1R (RPKPQQFFGLM-NH2; ends and bridges not checked; UniProt P20366 58-68, looked up)", "values": [{"measurement": "expression of inhibitory molecules Foxp3, CTLA4 and PD-1 by Tregs", "setting": "CD4^+CD25^+Foxp3^+ Tregs; SP 1 μM, 48 hours, in vitro", "result": "suppresses the expression"}, {"measurement": "secretion of immunoregulatory cytokines (TGFβ and IL-10) by Tregs", "setting": "CD4^+CD25^+Foxp3^+ Tregs; SP 1 μM, 48 hours, in vitro", "result": "significantly lower levels"}, {"measurement": "capacity of Tregs to suppress effector T cell proliferation in vitro", "setting": "CD4^+CD25^+Foxp3^+ Tregs; Tregs pre-incubated with SP", "result": "lower capacity"}, {"measurement": "Tregs recovered after co-culture with SP", "setting": "Foxp3^+CD4^+ Tregs", "result": "significantly reduced Tregs"}, {"measurement": "mean fluorescence intensity (MFI) of MHC II in BMDCs", "setting": "[1]", "result": "significant and dose-dependent increase"}, {"measurement": "corneal epithelial wound healing", "setting": "[2]", "result": "promotes corneal epithelial wound healing"}]}]}
